Experimental findings from patent US11685732B2, “MYST family histone acetyltransferase inhibitors” (Epizyme, Inc., priority 2017, dated 2023) are described below.

One assay concerns the target KAT-5 (Homo sapiens (Human), UniProt Q92993). Briefly: KAT-5 biochemical inhibition assay (SAMDI mass spectrometry). Put shortly:
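KAT-5 at 9 nM final was preincubated with serially diluted compound (2% DMSO) in 50 mM Tris pH 8.0 with 1 mM DTT. Reaction ran with 1 μM peptide substrate and 0.5 μM acetyl-CoA for 90 min at 25° C, was quenched with 0.5% formic acid, and was read by SAMDI-TOF mass spectrometry.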

A further assay deals with KAT-8 (Homo sapiens (Human), UniProt Q9H7Z6). The experiment in a line: KAT-8 biochemical inhibition assay (SAMDI mass spectrometry). The procedure, abridged: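 Compounds in 2% DMSO pre-incubated with 12.5 nM enzyme in 50 mM Tris pH 8.0 with Tween20, gelatin and 1 mM DTT. Then 1 μM peptide and 5 μM acetyl-CoA were added, 90 min at 25 °C; formic acid stop and SAMDI-TOF mass spectrometry for IC50.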

In the next assay the target is KAT-7 (Homo sapiens (Human), UniProt O95251). Briefly: KAT-7 biochemical inhibition assay (SAMDI mass spectrometry). The procedure, abridged: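 KAT-7 (6 nM) was pre-incubated with serially diluted compound (2% DMSO) in Tris pH 8.0 with DTT. Reaction with 1 μM peptide and 2 μM acetyl-CoA ran 120 min at 25 °C and was stopped with 0.5% formic acid. Acetylation was read by SAMDI-TOF mass spectrometry to give IC50.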

The target in a further assay is KAT-6A (Homo sapiens (Human), UniProt Q92794). The experiment in a line: KAT-6A biochemical inhibition assay (SAMDI mass spectrometry). The procedure, abridged:
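Enzyme (12.5 nM final) pre-incubated with serially diluted compounds (2% DMSO final) in 50 mM Tris pH 8.0 with Tween20, gelatin and 1 mM DTT. Reaction started with 1 μM peptide substrate and 1 μM acetyl-CoA, run 90 min at 25 °C, quenched with 0.5% formic acid, read by SAMDI-TOF mass spectrometry; IC50 derived.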

KAT-5, sequence (Q92993 other isoform, or with tags, fused parts or gaps): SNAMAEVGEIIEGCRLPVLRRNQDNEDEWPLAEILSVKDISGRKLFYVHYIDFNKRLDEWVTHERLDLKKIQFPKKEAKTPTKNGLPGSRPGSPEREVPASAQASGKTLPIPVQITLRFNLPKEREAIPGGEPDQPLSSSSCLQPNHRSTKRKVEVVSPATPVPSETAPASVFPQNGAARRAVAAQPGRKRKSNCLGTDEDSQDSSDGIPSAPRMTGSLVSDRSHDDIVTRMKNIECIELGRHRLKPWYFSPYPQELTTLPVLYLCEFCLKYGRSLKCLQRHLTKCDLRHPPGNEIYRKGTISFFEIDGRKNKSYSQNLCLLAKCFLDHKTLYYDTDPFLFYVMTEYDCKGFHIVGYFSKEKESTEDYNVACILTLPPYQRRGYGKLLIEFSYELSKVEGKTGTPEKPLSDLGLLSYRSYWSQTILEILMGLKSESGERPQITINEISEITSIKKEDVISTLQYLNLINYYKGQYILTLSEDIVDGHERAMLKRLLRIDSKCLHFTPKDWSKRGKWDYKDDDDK
KAT-8, sequence (Q9H7Z6 other isoform, or with tags, fused parts or gaps): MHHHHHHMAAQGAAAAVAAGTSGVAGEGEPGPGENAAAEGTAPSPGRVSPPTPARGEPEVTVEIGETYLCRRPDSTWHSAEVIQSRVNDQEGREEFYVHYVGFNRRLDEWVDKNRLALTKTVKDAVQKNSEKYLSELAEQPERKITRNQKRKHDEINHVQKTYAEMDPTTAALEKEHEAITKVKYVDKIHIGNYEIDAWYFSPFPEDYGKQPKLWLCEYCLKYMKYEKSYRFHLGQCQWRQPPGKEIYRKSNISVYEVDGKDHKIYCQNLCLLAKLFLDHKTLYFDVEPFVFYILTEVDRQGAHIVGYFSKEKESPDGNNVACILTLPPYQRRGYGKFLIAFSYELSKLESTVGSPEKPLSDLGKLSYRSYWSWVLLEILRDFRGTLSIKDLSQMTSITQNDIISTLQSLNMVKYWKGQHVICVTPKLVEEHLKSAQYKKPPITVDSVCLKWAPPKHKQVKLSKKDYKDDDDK
KAT-7, sequence (O95251 other isoform, or with tags, fused parts or gaps): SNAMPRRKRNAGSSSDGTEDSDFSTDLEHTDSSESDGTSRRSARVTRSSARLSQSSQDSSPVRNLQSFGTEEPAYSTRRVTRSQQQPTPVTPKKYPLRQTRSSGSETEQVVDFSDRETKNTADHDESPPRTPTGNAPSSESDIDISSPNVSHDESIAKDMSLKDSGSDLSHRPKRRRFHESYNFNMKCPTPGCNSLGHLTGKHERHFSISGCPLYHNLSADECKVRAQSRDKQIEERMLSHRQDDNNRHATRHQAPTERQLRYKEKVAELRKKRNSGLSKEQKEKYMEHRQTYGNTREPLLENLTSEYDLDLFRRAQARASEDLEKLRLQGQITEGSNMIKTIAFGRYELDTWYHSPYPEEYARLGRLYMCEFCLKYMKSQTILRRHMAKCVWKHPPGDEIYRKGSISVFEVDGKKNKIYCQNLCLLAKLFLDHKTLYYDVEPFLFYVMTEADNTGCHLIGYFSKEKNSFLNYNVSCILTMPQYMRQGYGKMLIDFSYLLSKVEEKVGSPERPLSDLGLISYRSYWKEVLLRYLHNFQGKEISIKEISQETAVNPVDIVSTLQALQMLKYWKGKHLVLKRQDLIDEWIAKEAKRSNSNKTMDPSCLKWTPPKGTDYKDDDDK
KAT-6A, sequence (Q92794 other isoform, or with tags, fused parts or gaps): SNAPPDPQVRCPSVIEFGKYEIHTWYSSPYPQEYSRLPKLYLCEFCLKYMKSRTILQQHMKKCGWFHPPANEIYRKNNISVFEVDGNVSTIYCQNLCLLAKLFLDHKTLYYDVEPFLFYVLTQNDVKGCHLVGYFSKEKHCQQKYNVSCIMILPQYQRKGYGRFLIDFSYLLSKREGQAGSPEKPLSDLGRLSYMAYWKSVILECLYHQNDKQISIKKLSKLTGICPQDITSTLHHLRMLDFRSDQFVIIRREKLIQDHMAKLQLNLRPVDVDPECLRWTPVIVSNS

With `Cn1cnc(-c2cc(Cl)c(F)c(C(=O)NNS(=O)(=O)C[C@H]3C[C@H](NC(=O)OC(C)(C)C)C3)c2)c1` [Compound I-124], the IC50 – broadly, the point on the concentration scale where inhibition reaches its midpoint – on KAT-5 was less than 10 µM; against KAT-8, 10 to 50 µM; against KAT-7 it was less than 10 µM; against KAT-6A, less than 10 µM.
`CC(=O)N[C@H]1C[C@H](CS(=O)(=O)NNC(=O)c2cc(-c3cn(C)cn3)cc(Cl)c2F)C1` [Compound I-125]: the IC50 at KAT-5 is 10 to 50 µM; at KAT-8, 10 to 50 µM; against KAT-7 it was less than 10 µM; on KAT-6A, 10 to 50 µM.
For `CCn1cnc(-c2cc(C)c(F)c(C(=O)NNS(=O)(=O)C3CCCCC3)c2)c1` [Compound I-126], the IC50 on KAT-5 is less than 10 µM; against KAT-8 it was greater than 100 µM; on KAT-7, less than 10 µM; against KAT-6A it was 10 to 50 µM.
Consider `Cc1cc(-c2cn(C)cn2)cc(C(=O)NNS(=O)(=O)C2CCCCC2)c1F` [Compound I-127], for which the 50% inhibitory concentration (IC50) is less than 10 µM on KAT-5, greater than 100 µM on KAT-8, less than 10 µM on KAT-7 and 10 to 50 µM against KAT-6A.
As for `Cc1cc(-c2cn(C)cn2)cc(C(=O)NNS(=O)(=O)Cc2ccccc2)c1F` [Compound I-128], the IC50 at KAT-5 was 10 to 50 µM; on KAT-8, greater than 100 µM; on KAT-7 it was less than 10 µM; on KAT-6A it was 10 to 50 µM.
Take `Cc1cc(-c2cn(C)cn2)cc(C(=O)NNS(=O)(=O)CC2CCCCC2)c1F` [Compound I-129]: the concentration for half-maximal inhibition (IC50) was less than 10 µM against KAT-5, greater than 100 µM against KAT-8, less than 10 µM at KAT-7 and less than 10 µM at KAT-6A.
Regarding `Cc1cc(-c2cn(C)cn2)cc(C(=O)NNS(=O)(=O)CC2CCOCC2)c1F` [Compound I-130], the IC50 at KAT-5 was less than 10 µM; on KAT-8, greater than 100 µM; at KAT-7, less than 10 µM; at KAT-6A, 10 to 50 µM.
Regarding `Cc1cc(-c2cn(C)cn2)cc(C(=O)NNS(=O)(=O)C2CCOCC2)c1F` [Compound I-131], the IC50 on KAT-5 was 10 to 50 µM; against KAT-8 it was greater than 100 µM; on KAT-7 it was less than 10 µM; against KAT-6A, 10 to 50 µM.
For the molecule `Cc1cc(-c2cn(C)cn2)cc(C(=O)NNS(=O)(=O)CC2CCCN(C(=O)OC(C)(C)C)C2)c1F` (centres unmarked) [Compound I-132], the IC50 against KAT-5 is less than 10 µM; on KAT-8 it was greater than 100 µM; at KAT-7, less than 10 µM; at KAT-6A it was less than 10 µM.
For `Cc1cc(-c2cn(C)cn2)cc(C(=O)NNS(=O)(=O)CC2CCCNC2)c1F` (centres unmarked) [Compound I-133], the IC50 was greater than 100 µM on KAT-5, greater than 100 µM against KAT-8, less than 10 µM on KAT-7 and greater than 100 µM against KAT-6A.
As to `COCCn1cnc(-c2cc(C)c(F)c(C(=O)NNS(=O)(=O)C3CCCCC3)c2)c1` [Compound I-134], the IC50 at KAT-5 was 10 to 50 µM; against KAT-8, greater than 100 µM; at KAT-7, less than 10 µM; against KAT-6A, greater than 100 µM.
As to `COCCn1cnc(-c2cc(C)c(F)c(C(=O)NNS(=O)(=O)CC3CCCN(C(=O)OC(C)(C)C)C3)c2)c1` (centres unmarked) [Compound I-135], the IC50 at KAT-5 was less than 10 µM; at KAT-8 it was greater than 100 µM; against KAT-7 it was 10 to 50 µM; against KAT-6A it was 50 to 100 µM.
As to `COCCn1cnc(-c2cc(C)c(F)c(C(=O)NNS(=O)(=O)CC3CCCNC3)c2)c1` (centres unmarked) [Compound I-136], the 50% inhibitory concentration (IC50) against KAT-5, against KAT-8, against KAT-7 and against KAT-6A was greater than 100 µM in each case.
`COCCn1cnc(-c2cc(C)c(F)c(C(=O)NNS(=O)(=O)CC3CCCN(C(=O)COC)C3)c2)c1` (centres unmarked) [Compound I-137]: the IC50 was 10 to 50 µM against KAT-5, greater than 100 µM against KAT-8, 10 to 50 µM against KAT-7 and 50 to 100 µM against KAT-6A.
Turning to `COCCn1cnc(-c2cc(C)c(F)c(C(=O)NNS(=O)(=O)C3CCOCC3)c2)c1` [Compound I-138], the concentration for half-maximal inhibition (IC50) was 10 to 50 µM against KAT-5, greater than 100 µM on KAT-8, 50 to 100 µM on KAT-7 and greater than 100 µM on KAT-6A.
Regarding `Cc1cc(-c2cn(C(C)C)cn2)cc(C(=O)NNS(=O)(=O)C2CCCCC2)c1F` [Compound I-139], the IC50 on KAT-5 is 10 to 50 µM; on KAT-8, greater than 100 µM; on KAT-7, less than 10 µM; at KAT-6A it was greater than 100 µM.
For `COCCn1cnc(-c2cc(C)c(F)c(C(=O)NNS(=O)(=O)CC3CCOCC3)c2)c1` [Compound I-140], the IC50 was 10 to 50 µM at KAT-5, greater than 100 µM against KAT-8, less than 10 µM on KAT-7 and 10 to 50 µM on KAT-6A.
For the molecule `COCC(=O)N1CCCC(CS(=O)(=O)NNC(=O)c2cc(-c3cn(C)cn3)cc(C)c2F)C1` (centres unmarked) [Compound I-141], the IC50 was less than 10 µM against KAT-5, greater than 100 µM against KAT-8, less than 10 µM against KAT-7 and less than 10 µM on KAT-6A.
Consider `CC(=O)N1CCCC(CS(=O)(=O)NNC(=O)c2cc(-c3cn(C)cn3)cc(C)c2F)C1` (centres unmarked) [Compound I-142], for which the IC50 is less than 10 µM on KAT-5, greater than 100 µM at KAT-8, less than 10 µM on KAT-7 and less than 10 µM against KAT-6A.
For `Cc1cc(-c2cn(CCO)cn2)cc(C(=O)NNS(=O)(=O)C2CCOCC2)c1F` [Compound I-143], the IC50 against KAT-5 is 50 to 100 µM; on KAT-8, greater than 100 µM; at KAT-7 it was 50 to 100 µM; against KAT-6A it was 50 to 100 µM.
On to `Cn1cnc(-c2cc(Cl)c(Cl)c(C(=O)NNS(=O)(=O)CC3CCCCC3)c2)c1` [Compound I-144], for which the IC50 against KAT-5 was greater than 100 µM; on KAT-8, greater than 100 µM; against KAT-7, less than 10 µM; on KAT-6A, greater than 100 µM.
Take `Cc1cc(-c2cn(C)cn2)cc(C(=O)NNS(=O)(=O)CC2CCCCC2)c1C` [Compound I-145]: the IC50 on KAT-5 is greater than 100 µM; on KAT-8 it was greater than 100 µM; at KAT-7, 10 to 50 µM; on KAT-6A, greater than 100 µM.
As for `Cc1cc(-c2cn(CCO)cn2)cc(C(=O)NNS(=O)(=O)CC2CCOCC2)c1F` [Compound I-146], the IC50 on KAT-5 is 10 to 50 µM; against KAT-8 it was greater than 100 µM; at KAT-7 it was 10 to 50 µM; against KAT-6A it was 10 to 50 µM.
As for `Cc1cc(-c2cn(C)c(Cl)n2)cc(C(=O)NNS(=O)(=O)CC2CCCCC2)c1C` [Compound I-147], the IC50 at KAT-5, at KAT-8, against KAT-7 and on KAT-6A was greater than 100 µM in each case.
On to `COCC(=O)N1CCCC(CS(=O)(=O)NNC(=O)c2cc(-c3cn(CCO)cn3)cc(C)c2F)C1` (centres unmarked) [Compound I-148], for which the IC50 at KAT-5, against KAT-8, on KAT-7 and at KAT-6A was 10 to 50 µM in each case.
As to `Cn1cnc(-c2cc(F)c(F)c(C(=O)NNS(=O)(=O)C3CCOCC3)c2)c1` [Compound I-149], the IC50 at KAT-5 is 10 to 50 µM; on KAT-8 it was 10 to 50 µM; at KAT-7, less than 10 µM; against KAT-6A, 10 to 50 µM.
For `Cn1cnc(-c2cc(F)c(F)c(C(=O)NNS(=O)(=O)CC3CCOCC3)c2)c1` [Compound I-150], the IC50 is 10 to 50 µM against KAT-5, 10 to 50 µM on KAT-8, less than 10 µM against KAT-7 and 10 to 50 µM on KAT-6A.
On to `CCCn1cc(-c2cc(C)c(F)c(C(=O)NNS(=O)(=O)C3CCCCC3)c2)cn1` [Compound I-151], for which the IC50 against KAT-5 is 50 to 100 µM; on KAT-8 it was greater than 100 µM; at KAT-7, 10 to 50 µM; against KAT-6A, greater than 100 µM.
With `COCCn1cc(-c2cc(C)c(F)c(C(=O)NNS(=O)(=O)C3CCCCC3)c2)cn1` [Compound I-152], the IC50 on KAT-5 was 10 to 50 µM; against KAT-8, greater than 100 µM; at KAT-7 it was greater than 100 µM; against KAT-6A it was greater than 100 µM.
As for `Cc1cc(-c2cncn2C)cc(C(=O)NNS(=O)(=O)C2CCCCC2)c1F` [Compound I-153], the IC50 on KAT-5, on KAT-8, against KAT-7 and on KAT-6A was greater than 100 µM in each case.
In the case of `CCn1cc(-c2cc(C)c(F)c(C(=O)NNS(=O)(=O)C3CCCCC3)c2)cn1` [Compound I-154], the half-maximal inhibitory concentration (IC50) was 10 to 50 µM against KAT-5, greater than 100 µM at KAT-8, less than 10 µM against KAT-7 and greater than 100 µM against KAT-6A.
With `Cc1cc(-c2cnn(C(C)C)c2)cc(C(=O)NNS(=O)(=O)C2CCCCC2)c1F` [Compound I-155], the IC50 against KAT-5 is greater than 100 µM; on KAT-8, greater than 100 µM; on KAT-7, 10 to 50 µM; on KAT-6A, greater than 100 µM.
For the molecule `Cc1cc(-c2cnn(C)c2)cc(C(=O)NNS(=O)(=O)C2CCCCC2)c1F` [Compound I-156], the IC50 on KAT-5 is 10 to 50 µM; against KAT-8 it was greater than 100 µM; on KAT-7 it was less than 10 µM; against KAT-6A it was greater than 100 µM.
Regarding `Cn1cc(-c2cc(Cl)c(F)c(C(=O)NNS(=O)(=O)CC3CCCCC3)c2)cn1` [Compound I-158], the IC50 on KAT-5 is less than 10 µM; against KAT-8 it was greater than 100 µM; on KAT-7, less than 10 µM; at KAT-6A, 10 to 50 µM.
Regarding `CNC(=O)N1CC(CS(=O)(=O)NNC(=O)c2cc(-c3cn(C)cn3)cc(Cl)c2F)C1` [Compound I-160], the IC50 against KAT-5 is 10 to 50 µM; against KAT-8, 10 to 50 µM; on KAT-7 it was less than 10 µM; on KAT-6A it was 10 to 50 µM.
